Earlier results on seven compounds are cited in article PMC10928227, “Assessing biologic/toxicologic effects of extractables from plastic contact materials for advanced therapy manufacturing using cell painting assay and cytotoxicity screening” (Scientific Reports, 2024).

Read-outs that look alike come from different tables or passages of the source.

The conditions of the data set: cited from earlier work; for Risk based on in vitro genotoxicity data from database (from QSAR-toolbox): not checked for in vivo relevance, ref QSAR Toolbox 4.5 database.

Regarding `Cc1ccc(S(N)(=O)=O)cc1` [70-55-3], the “Gene mutation, Bacterial Reverse Mutation Assay (e.g. Ames Test)” value (shortened to “Gene mutation”) runs as follows: (Salmonella typhimurium, No Strain Information, in Vitro, Database: Genotoxicity OASIS, ref NIHS Japan) “Negative”; (Salmonella typhimurium, Strain TA 98, in Vitro, Database: Genotoxicity OASIS, ref https://doi.org/10.22427/NTP-DATA-022-00002-0001-000-7, National Institute of Environmental Health Sciences) “Negative”; (Salmonella typhimurium, Strain TA 100, in Vitro, Database: Genotoxicity OASIS, ref https://doi.org/10.22427/NTP-DATA-022-00002-0001-000-7, National Institute of Environmental Health Sciences) “Negative”; (Salmonella typhimurium, Strain TA 102, in Vitro, Database: Genotoxicity OASIS, ref https://doi.org/10.22427/NTP-DATA-022-00002-0001-000-7, National Institute of Environmental Health Sciences) “Negative”; (Salmonella typhimurium, Strain TA 1535, in Vitro, OECD Guideline 471, Database: Genotoxicity OASIS, ref Japan Existing Chemical Data Base) “Negative”; (in Vitro, E. coli WP2 uvrA, Database Genotoxicity OASIS, ref ECHA, Registration dossier) “Negative”. Further, the “Gene mutation” value is reported as “Negative” (in Vitro, Escherichia coli, Strain WP2 UvrA, Guidelines For Screening Mutagenicity Testing of Chemicals (Chemical Substances Control Law of Japan), Database Toxicity Japan MHLW, ref Japan Existing Chemical Data Base, http://dra4.nihs.go.jp/mhlw_data/jsp/SearchPageENG.jsp); “Negative” (in Vitro, Salmonella typhimurium, Strain TA 97, Guidelines For Screening Mutagenicity Testing of Chemicals (Chemical Substances Control Law of Japan), Database Toxicity Japan MHLW, ref Japan Existing Chemical Data Base, http://dra4.nihs.go.jp/mhlw_data/jsp/SearchPageENG.jsp); “Negative” (in Vitro, Salmonella typhimurium, Strain TA 100, Guidelines For Screening Mutagenicity Testing of Chemicals (Chemical Substances Control Law of Japan), Database Toxicity Japan MHLW, ref Japan Existing Chemical Data Base, http://dra4.nihs.go.jp/mhlw_data/jsp/SearchPageENG.jsp); “Negative” (in Vitro, Salmonella typhimurium, Strain TA 1535, Guidelines For Screening Mutagenicity Testing of Chemicals (Chemical Substances Control Law of Japan), Database Toxicity Japan MHLW, ref Japan Existing Chemical Data Base, http://dra4.nihs.go.jp/mhlw_data/jsp/SearchPageENG.jsp); “Negative” (in Vitro, Salmonella typhimurium, Strain TA 1535, OECD Guideline 471, Database Genotoxicity OASIS, ref Japan Existing Chemical Data Base); “Negative” (in Vitro, Salmonella typhimurium, Strain TA 1537, Guidelines For Screening Mutagenicity Testing of Chemicals (Chemical Substances Control Law of Japan), Database Toxicity Japan MHLW, ref Japan Existing Chemical Data Base, http://dra4.nihs.go.jp/mhlw_data/jsp/SearchPageENG.jsp). In addition, the “Gene mutation” value (in Vitro, Salmonella typhimurium, Strain TA 1537, OECD Guideline 471, Database Genotoxicity OASIS, ref Japan Existing Chemical Data Base) is given as “Negative”. The “Chromosome aberration, in Vitro Mammalian Chromosome Aberration Test” value is reported as “Negative” (in Vitro, Chinese hamster, Chinese Hamster Lung Cells, Guidelines For Screening Mutagenicity Testing of Chemicals (Chemical Substances Control Law of Japan), Database Toxicity Japan MHLW, ref Japan Ministry of Health Labour and Welfare, http://dra4.nihs.go.jp/mhlw_data/jsp/SearchPageENG.jsp); “Negative” (in Vitro, No Strain Information, Database Genotoxicity OASIS, ref NIHS Japan).
Turning to `Cc1cc(C)c(C(=O)P(=O)(c2ccccc2)c2ccccc2)c(C)c1` [75980-60-8], the “Chromosome aberration, in Vitro Mammalian Chromosome Aberration Test” value (in Vitro, Chinese hamster, Chinese Hamster Cells, Database Genotoxicity OASIS, ref Scientific Committee on Consumer Safety ( SCCS), 27 March 2014, SCCS/1528/14) is “Negative”.
Turning to `OCc1ccccc1` [Benzylalcohol], the “Risk based on in vitro genotoxicity data from database (from QSAR-toolbox)” value (“Risk based on in vitro genotoxicity data” for short) is reported as “Positive in vitro data”.
Regarding `Sc1nc2ccccc2s1` [2-Mercaptobenzothiazole], the “Risk based on in vitro genotoxicity data” value is given as “Positive in vitro data”.
Take `CCCC(C)=O` [107-87-9]: the “Gene mutation” value (in Vitro, Salmonella typhimurium, No Strain Information, Database Genotoxicity OASIS, ref J. Chem. Inf. Model., 2009, 49 (9), pp 2077–2081, Hansen K. et al.) is “Negative”.
As for `CC(=O)c1ccccc1` [Acetophenone], the “Risk based on in vitro genotoxicity data” value is on record as “Positive in vitro data”.
For the compound `Nc1ccccc1` [Aniline], the “Risk based on in vitro genotoxicity data” value is “Positive in vitro data”.
